Measurements as given in patent US20080269241A1, “BICYCLIC AMINOPROPYL TETRAHYDRO-PYRAZOLO-PYRIDINE MODULATORS OF CATHEPSIN S” (priority 2007, published 2008).

Each molecule was assayed against T1, human cathepsin S (CatS) (Homo sapiens, UniProt P25774) (assay: Recombinant human cathepsin S (CatS) fluorogenic substrate inhibition assay). Details: recombinant human CatS, 10 μM Z-Valine-Valine-Arginine-AMC, pH 5.0; average of results obtained; read-out: CatS IC50.
T1 construct: made in house; host or cells: baculovirus system (insect cells)
T1 sequence (P25774 115-331): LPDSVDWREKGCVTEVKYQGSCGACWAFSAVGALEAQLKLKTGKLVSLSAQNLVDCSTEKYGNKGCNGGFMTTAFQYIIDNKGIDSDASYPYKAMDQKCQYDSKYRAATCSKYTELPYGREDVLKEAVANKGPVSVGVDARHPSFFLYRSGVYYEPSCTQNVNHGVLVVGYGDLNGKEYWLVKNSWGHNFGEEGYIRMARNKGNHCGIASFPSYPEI
Type: biochemical
Procedure: Recombinant human cathepsin S (CatS) was expressed in the baculovirus system and purified in one step with a thiopropyl-sepharose column. […] The assay is run in 150 mM sodium acetate pH 5.0 containing 1.5 mM DTT and 150 mM NaCl. […] Measurements are taken every min for 20 min. The rate is calculated from the slope of the increase in fluorescence and the percent inhibition is calculated from this.

Compared with CC1CCCN(CC(=O)NCc2cc(-c3nn(CCCN4CCC(N5CCCC5=O)CC4)c4c3CN(S(C)(=O)=O)CC4)ccc2C(F)(F)F)C1 (stereo not drawn) [Example 223, N-[5-(5-Methanesulfonyl-1-{3-[4-(2-oxo-pyrrolidin-1-yl)-piperidin-1-yl]-propyl}-4,5,6,7-tetrahydro-1H-pyrazolo[4,3-c]pyridin-3-yl)-2-trifluoromethyl-benzyl]-2-(3-methyl-piperidin-1-yl)-acetamide], CSCC(=O)NCc1cc(-c2nn(CCCN3CCC(N4CCCC4=O)CC3)c3c2CN(S(C)(=O)=O)CC3)ccc1C(F)(F)F [Example 125, N-[5-(5-Methanesulfonyl-1-{3-[4-(2-oxo-pyrrolidin-1-yl)-piperidin-1-yl]-propyl}-4,5,6,7-tetrahydro-1H-pyrazolo[4,3-c]pyridin-3-yl)-2-trifluoromethyl-benzyl]-2-methylsulfanyl-acetamide] is 3.5-fold lower in IC50: 700 nM for the first, 200 nM for the second. The second is the more potent here.

Going from CCc1ccc(C(=O)Nc2cc(-c3nn(CCCN4CCN(c5cccc(Cl)c5)CC4)c4c3CN(S(C)(=O)=O)CC4)ccc2Cl)cc1 [Example 230, N-[2-Chloro-5-(1-{3-[4-(3-chloro-phenyl)-piperazin-1-yl]-propyl}-5-methanesulfonyl-4,5,6,7-tetrahydro-1H-pyrazolo[4,3-c]pyridin-3-yl)-phenyl]-4-ethyl-benzamide] to CN(C)c1ccc(C(=O)Nc2cc(-c3nn(CCCN4CCN(c5cccc(Cl)c5)CC4)c4c3CN(S(C)(=O)=O)CC4)ccc2Cl)cc1 [Example 199, N-[2-Chloro-5-(1-{3-[4-(3-chloro-phenyl)-piperazin-1-yl]-propyl}-5-methanesulfonyl-4,5,6,7-tetrahydro-1H-pyrazolo[4,3-c]pyridin-3-yl)-phenyl]-4-dimethylamino-benzamide], the IC50 falls from 780 nM to 470 nM (1.7-fold). The second is the more potent here.

Going from CC(C)=CC(=O)NCc1cc(-c2nn(CC(O)CN3CCC(c4c[nH]c5ncccc45)CC3)c3c2CN(S(C)(=O)=O)CC3)ccc1C(F)(F)F (stereo not drawn) [Example 272, 3-Methyl-but-2-enoic acid 5-(1-{2-hydroxy-3-[4-(1H-pyrrolo[2,3-b]pyridin-3-yl)-piperidin-1-yl]-propyl}-5-methanesulfonyl-4,5,6,7-tetrahydro-1H-pyrazolo[4,3-c]pyridin-3-yl)-2-trifluoromethyl-benzylamide] to CC(C)=CC(=O)NCc1cc(-c2nn(CC(O)CN3CCC(c4ccccc4)CC3)c3c2CN(S(C)(=O)=O)CC3)ccc1C(F)(F)F (stereo not drawn) [Example 274, 3-Methyl-but-2-enoic acid 5-{1-[2-hydroxy-3-(4-phenyl-piperidin-1-yl)-propyl]-5-methanesulfonyl-4,5,6,7-tetrahydro-1H-pyrazolo[4,3-c]pyridin-3-yl}-2-trifluoromethyl-benzylamide], the IC50 falls from 20 nM to 10 nM (2-fold). The second is the more potent here.

First: CS(=O)(=O)c1ccc(C(=O)NCc2cc(-c3nn(CC(O)CN4CCC(N5CCCC5=O)CC4)c4c3CN(S(C)(=O)=O)CC4)ccc2C(F)(F)F)s1 (stereo not drawn) [Example 119, 5-Methanesulfonyl-thiophene-2-carboxylic acid 5-(1-{2-hydroxy-3-[4-(2-oxo-pyrrolidin-1-yl)-piperidin-1-yl]-propyl}-5-methanesulfonyl-4,5,6,7-tetrahydro-1H-pyrazolo[4,3-c]pyridin-3-yl)-2-trifluoromethyl-benzylamide]
Second: CS(=O)(=O)N1CCc2c(c(-c3ccc(C(F)(F)F)c(CNC(=O)c4ccncc4)c3)nn2CC(O)CN2CCC(N3CCCC3=O)CC2)C1 (stereo not drawn) [Example 128, N-[5-(1-{2-Hydroxy-3-[4-(2-oxo-pyrrolidin-1-yl)-piperidin-1-yl]-propyl}-5-methanesulfonyl-4,5,6,7-tetrahydro-1H-pyrazolo[4,3-c]pyridin-3-yl)-2-trifluoromethyl-benzyl]-isonicotinamide]
The IC50 of the first is 1.7-fold lower: 140 nM for the first, 240 nM for the second. The first is the more potent here.

Compared with Cn1cncc1C(=O)NCc1cc(-c2nn(CC(O)CN3CCC(N4CCCC4=O)CC3)c3c2CN(S(C)(=O)=O)CC3)ccc1C(F)(F)F (stereo not drawn) [Example 133, 3-Methyl-3H-imidazole-4-carboxylic acid 5-(1-{2-hydroxy-3-[4-(2-oxo-pyrrolidin-1-yl)-piperidin-1-yl]-propyl}-5-methanesulfonyl-4,5,6,7-tetrahydro-1H-pyrazolo[4,3-c]pyridin-3-yl)-2-trifluoromethyl-benzylamide], CS(=O)(=O)N1CCc2c(c(-c3ccc(C(F)(F)F)c(CNC(=O)c4ccc(F)cc4)c3)nn2CC(O)CN2CCC(N3CCCC3=O)CC2)C1 (stereo not drawn) [Example 17, 4-Fluoro-N-[5-(1-{2-hydroxy-3-[4-(2-oxo-pyrrolidin-1-yl)-piperidin-1-yl]-propyl}-5-methanesulfonyl-4,5,6,7-tetrahydro-1H-pyrazolo[4,3-c]pyridin-3-yl)-2-trifluoromethyl-benzyl]-benzamide] is 19-fold lower in IC50: 380 nM for the first, 20 nM for the second. The second is the more potent here.

Compared with CS(=O)(=O)N1CCc2c(c(-c3ccc(C(F)(F)F)c(CNC(=O)C4CCCCCC4)c3)nn2CC(O)CN2CCC(N3CCCC3=O)CC2)C1 (stereo not drawn) [Example 130, Cycloheptanecarboxylic acid 5-(1-{2-hydroxy-3-[4-(2-oxo-pyrrolidin-1-yl)-piperidin-1-yl]-propyl}-5-methanesulfonyl-4,5,6,7-tetrahydro-1H-pyrazolo[4,3-c]pyridin-3-yl)-2-trifluoromethyl-benzylamide], CS(=O)(=O)N1CCc2c(c(-c3ccc(C(F)(F)F)c(CNC(=O)N4CCCCC4)c3)nn2CC(O)CN2CCC(N3CCCC3=O)CC2)C1 (stereo not drawn) [Example 112, Piperidine-1-carboxylic acid 5-(1-{2-hydroxy-3-[4-(2-oxo-pyrrolidin-1-yl)-piperidin-1-yl]-propyl}-5-methanesulfonyl-4,5,6,7-tetrahydro-1H-pyrazolo[4,3-c]pyridin-3-yl)-2-trifluoromethyl-benzylamide] is 2.7-fold lower in IC50: 270 nM for the first, 100 nM for the second. The second is the more potent here.

Compared with CC(=O)NCc1cc(-c2nn(CC(O)CN3CCC(n4c(=O)n(C)c5ccc(N(C)C)nc54)CC3)c3c2CN(S(C)(=O)=O)CC3)ccc1C(F)(F)F (stereo not drawn) [Example 143, N-[5-(1-{3-[4-(5-Dimethylamino-1-methyl-2-oxo-1,2-dihydro-imidazo[4,5-b]pyridin-3-yl)-piperidin-1-yl]-2-hydroxy-propyl}-5-methanesulfonyl-4,5,6,7-tetrahydro-1H-pyrazolo[4,3-c]pyridin-3-yl)-2-trifluoromethyl-benzyl]-acetamide], CN(C)CC(=O)NCc1cc(-c2nn(CC(O)CN3CCC(N4CCCC4)CC3)c3c2CN(S(C)(=O)=O)CC3)ccc1C(F)(F)F (stereo not drawn) [Example 243, 2-Dimethylamino-N-(5-{1-[2-hydroxy-3-(4-pyrrolidin-1-yl-piperidin-1-yl)-propyl]-5-methanesulfonyl-4,5,6,7-tetrahydro-1H-pyrazolo[4,3-c]pyridin-3-yl}-2-trifluoromethyl-benzyl)-acetamide] is 53-fold higher in IC50: 100 nM for the first, 5300 nM for the second. The first is the more potent here.

First: CS(=O)(=O)N1CCc2c(c(-c3ccc(C(F)(F)F)c(CNC(=O)CC4CCCCC4)c3)nn2CCCN2CCC(N3CCCC3=O)CC2)C1 [Example 111, 2-Cyclohexyl-N-[5-(5-methanesulfonyl-1-{3-[4-(2-oxo-pyrrolidin-1-yl)-piperidin-1-yl]-propyl}-4,5,6,7-tetrahydro-1H-pyrazolo[4,3-c]pyridin-3-yl)-2-trifluoromethyl-benzyl]-acetamide]
Second: CN(C)CC(=O)NCc1cc(-c2nn(CCCN3CCC(N4CCCC4=O)CC3)c3c2CN(S(C)(=O)=O)CC3)ccc1C(F)(F)F [Example 38, 2-Dimethylamino-N-[5-(5-methanesulfonyl-1-{3-[4-(2-oxo-pyrrolidin-1-yl)-piperidin-1-yl]-propyl}-4,5,6,7-tetrahydro-1H-pyrazolo[4,3-c]pyridin-3-yl)-2-trifluoromethyl-benzyl]-acetamide]
The IC50 of the first is 15-fold lower: 100 nM for the first, 1540 nM for the second.

First: CC(C)=CC(=O)NCc1cc(-c2nn(CC(O)CN3CCC(c4nc(=O)[nH][nH]4)CC3)c3c2CN(S(C)(=O)=O)CC3)ccc1C(F)(F)F (stereo not drawn) [Example 270, 3-Methyl-but-2-enoic acid 5-(1-{2-hydroxy-3-[4-(5-oxo-2,5-dihydro-1H-[1,2,4]triazol-3-yl)-piperidin-1-yl]-propyl}-5-methanesulfonyl-4,5,6,7-tetrahydro-1H-pyrazolo[4,3-c]pyridin-3-yl)-2-trifluoromethyl-benzylamide]
Second: CC(C)CC(=O)NCc1cc(-c2nn(CC(O)CN3CCC(c4nnn[nH]4)CC3)c3c2CN(S(C)(=O)=O)CC3)ccc1C(F)(F)F (stereo not drawn) [Example 277, N-[5-(1-{2-Hydroxy-3-[4-(1H-tetrazol-5-yl)-piperidin-1-yl]-propyl}-5-methanesulfonyl-4,5,6,7-tetrahydro-1H-pyrazolo[4,3-c]pyridin-3-yl)-2-trifluoromethyl-benzyl]-3-methyl-butyramide]
The IC50 of the first is 14-fold lower: 10 nM for the first, 140 nM for the second. The first is the more potent here.

Compared with CN(C)Cc1cc(-c2nn(CCCN3CCC(N4CCCC4=O)CC3)c3c2CN(S(C)(=O)=O)CC3)ccc1C(F)(F)F [Example 206, 1-(1-{3-[3-(3-Dimethylaminomethyl-4-trifluoromethyl-phenyl)-5-methanesulfonyl-4,5,6,7-tetrahydro-pyrazolo[4,3-c]pyridin-1-yl]-propyl}-piperidin-4-yl)-pyrrolidin-2-one], CC(C)OC(=O)NCc1cc(-c2nn(CCCN3CCC(N4CCCC4=O)CC3)c3c2CN(S(C)(=O)=O)CC3)ccc1C(F)(F)F [Example 43, [5-(5-Methanesulfonyl-1-{3-[4-(2-oxo-pyrrolidin-1-yl)-piperidin-1-yl]-propyl}-4,5,6,7-tetrahydro-1H-pyrazolo[4,3-c]pyridin-3-yl)-2-trifluoromethyl-benzyl]-carbamic acid isopropyl ester] is 32-fold lower in IC50: 2520 nM for the first, 80 nM for the second.

In the case of CC(C)CC(=O)NCc1cc(-c2nn(CC(O)CN3CCC(C(=O)N4CCCC4)CC3)c3c2CN(S(C)(=O)=O)CC3)ccc1C(F)(F)F (stereo not drawn) [Example 284, N-[5-(1-{2-Hydroxy-3-[4-(pyrrolidine-1-carbonyl)-piperidin-1-yl]-propyl}-5-methanesulfonyl-4,5,6,7-tetrahydro-1H-pyrazolo[4,3-c]pyridin-3-yl)-2-trifluoromethyl-benzyl]-3-methyl-butyramide], the IC50 is reported as 60 nM.
